Results taken from PubChem BioAssay AID179 (DTP/NCI, 2004).
Active and inactive are the calls of the source.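 How the source made its calls: active means compounds giving half or more protection of infected cells from virus-caused growth loss, again on retest; inactive means the rest.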

Tested on: CEM cells HIV-1 protection, formazan growth assay
Test: NCI AIDS Antiviral Assay
Details: for IC50: measured here: growth of uninfected CEM cells
How it was run: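 Protection of CEM cells against HIV-1 measured as cell growth via soluble formazan read-out, with five concentrations tested on both infected and uninfected cells; failure to protect may reflect toxicity.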

Row | Structure (SMILES) | outcome | EC50 [µM] | IC50 [µM]
1 | O=C(O)[C@@H]1C2C3CC4C2C4C3[C@@H]1C(=O)O | inactive |  | 
2 | Cc1cc(C)nc(NS(=O)(=O)c2ccc(Nc3c4ccccc4nc4ccc(C(=O)Nc5ccc(S(=O)(=O)N=C(N)N)cc5)cc34)cc2)n1 |  | > 93.3 | 47.9
3 | O=C(O)CCNS(=O)(=O)c1ccc2ccccc2c1 | inactive |  | 
4 | CCOC(OC1=C(C#N)CCCC1)C(CC)[Se]c1ccccc1[N+](=O)[O-] (stereo not given) |  | > 23.4 | > 23.4
5 | Cc1cc(C)nc(NS(=O)(=O)c2ccc(Nc3c4ccccc4nc4c(C(=O)N5CCN(CCO)CC5)ccc(Cl)c34)cc2)n1 |  | > 34.7 | > 34.7
6 | CC1(C)OC[C@@H](O)[C@H](C#N)CO1 |  | > 200 | > 200
7 | c1cc[c]([Sn]([S]c2ccccn2)([c]2ccccc2)[c]2ccccc2)cc1 |  | > 2 | 0.339
8 | COc1ccc(/C(CC2OC(=O)c3ccccc32)=N\NC(N)=O)cc1 (stereo not given) |  | > 339 | > 339
9 | COc1ccc(C(=O)c2ccccc2)c(O)c1 |  | > 200 | > 200
10 | C=C(COC(=O)CC1(CC(=O)O)CCCC1)[C@@H]1CC[C@]2(COC(=O)CC3(CC(=O)O)CCCC3)CC[C@]3(C)[C@H](CC[C@@H]4[C@@]5(C)CC[C@H](OC(=O)CC6(CC(=O)O)CCCC6)C(C)(C)[C@@H]5CC[C@]43C)[C@@H]12 |  | > 200 | 8.71
11 | O=S(=O)(O)CC(O)CNC(CO)(CO)CO (stereo not given) |  | > 200 | > 200
12 | Nc1c(C(=O)O)nnc2cc(Cl)c(Cl)cc12 |  | > 200 | > 200
13 | COC(=O)Nc1nc2ccc(C(=O)c3ccc(F)cc3)cc2[nH]1 |  | > 2 | 0.0871
14 | NCCCN(CCCCN(CCCN)C(=O)OCc1ccccc1)C(=O)OCc1ccccc1 | inactive |  | 
15 | O=C(NC1CCN(Cc2ccccc2)CC1)c1ccc(I)cc1 |  | > 200 | 15.8
16 | Nc1ncnc2c1nnn2C1CCC(CP(=O)(O)O)C1 (stereo not given) |  | > 200 | > 200
17 | N#CSCc1ccc(Cl)cc1 |  | > 28.2 | 16.2
18 | Cc1ccc(C)c2c1n1c(=O)n(C)c(=O)n21 |  | > 200 | > 200
19 | Cc1ccc(NC(=O)CCC(CC(=O)C(C)(C)C)=NNC(=O)C(=O)NN)cc1C |  | > 3.63 | 2.57
20 | O=C1c2cccc3cc([N+](=O)[O-])cc(c23)C(=O)N1CCCN(CCO)CCO | inactive |  | 
21 | c1ccc(Nc2nnnn2-c2ccccc2)cc1 |  | > 200 | > 200
22 | O=C(O)c1c[nH]cc1C(=O)O | inactive |  | 

Row | Structure (SMILES) | outcome | EC50 [µM] | IC50 [µM]
23 | CNc1ccccc1S(=O)(=O)c1ccccc1C(F)(F)F |  | > 200 | 17
24 | N#CCCC1C(C#N)C2CC1C1C3C=CC(C3)C21 (stereo not given) |  | > 200 | > 200
25 | O=C(/C=C/c1ccccc1F)c1ccccc1 |  | > 22.9 | > 22.9
26 | CCCCCCc1cn([C@H]2C[C@H](O)[C@@H](CO)O2)c(=O)[nH]c1=O | inactive |  | 
27 | CCOP(=O)(CCCC(O)CNc1cc(Cl)nc(N)n1)OCC (stereo not given) |  | > 200 | > 200
28 | O=c1cc(NNCc2ccccc2)[nH]c(=O)[nH]1 |  | > 200 | 57.5
29 | O=c1ccn(C/C=C/c2ccccc2)c(=S)n1C/C=C/c1ccccc1 | inactive |  | 
30 | COc1ccc(-c2c(C3=NCCCN3)nnn2-c2ccc([N+](=O)[O-])cc2)cc1 |  | > 13.8 | > 13.8
31 | Cc1nc2ccc(C(F)(F)F)cc2nc1Nc1ccc(Cl)c(Cl)c1 |  | > 17.8 | 11.5
32 | O=C1c2ccccc2C(=O)C1(c1ccccn1)[N+](=O)[O-] |  | > 200 | 72.4
33 | C=C(C)C#CC(O)(C(=O)OC1CCN(C)CC1)C(C)C (stereo not given) |  | > 200 | > 200
34 | C[CH2][Pb]([CH2]C)([CH2]C)[O]C(=O)COc1ccc(Cl)cc1Cl |  | > 2 | 0.575
35 | COC(=O)c1c/c(=N\NC(=O)CC(=O)Nc2ccc(C)cc2)c2ccccc2o1 |  | > 631 | > 631
36 | COc1nc(C(=O)NNC(=O)c2nc(OC)c3ccccc3c2-c2ccccc2)c(-c2ccccc2)c2ccccc12 | inactive |  | 
37 | CN(C)c1ccc(C(=O)CCCN2CCC(O)(c3ccc(Cl)cc3)CC2)cc1 |  | > 25.1 | > 25.1
38 | CC1(C)O[C@H](C(=O)O)[C@@H](C(=O)O)O1 |  | > 200 | > 200
39 | N#Cc1c(-c2ccccc2)cc(-c2ccc(N)cc2)[nH]c1=O |  | > 18.2 | > 18.2
40 | CN(C)CCNC(=O)c1ccc(NC(=O)c2nc([N+](=O)[O-])cn2C)cc1 |  | > 200 | 182
41 | CC(C)(C)OC(=O)N[C@@H](Cc1ccccc1)CN1CCCC1C(=O)OCc1ccccc1 (stereo not given in full) |  | > 30.9 | > 30.9
42 | CCOCC=NCC(=O)OCC |  | > 1450 | > 1450
43 | O=C1CN(c2ccccc2)C(=O)CN1NCNN1CC(=O)N(c2ccccc2)CC1=O |  | > 200 | > 200
44 | CCCCCCCCCCCCCCCCCCOC(COP(=O)(O)OCC1OC(n2cc(C)c(=O)[nH]c2=O)CC1N=[N+]=[N-])COP(=O)(O)OC1CC(n2cc(C)c(=O)[nH]c2=O)OC1CO (stereo not given) |  | 0.17 | 30.9
